The source of these data is US20230065953A1, “NOVEL HETEROARYL-TRIAZOLE COMPOUNDS AS PESTICIDES” (Bayer Aktiengesellschaft, priority 2019, published 2023).

Holding throughout (type): in vivo
Assay [1] relates to Rhipicephalus microplus larvae (strain Parkhurst, resistant against synthetic pyrethroids). Briefly: Rhipicephalus (Boophilus) microplus in-vitro contact test, larval cattle tick. As to conditions: 5 μg/cm^2 (=500 g/ha), after 48 hours, read-out: efficacy (larvae dead or moribund). In a few lines:
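After drying, 20-50 larvae were held per tube at 27° C., 85% relative humidity for 48 h, and efficacy was scored as % dead or moribund.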

The subject of assay [2] is cattle ticks (Rhipicephalus microplus) strain Parkhurst, SP-resistant. Description: Rhipicephalus (Boophilus) microplus dip test. As to conditions: 100 ppm, egg deposition after 7 days. Here is the method: Rhipicephalus (Boophilus) Microplus—Dip Test
Test animal: cattle ticks (Rhipicephalus microplus) strain Parkhurst, SP-resistant
Solvent: dimethyl sulfoxide
To produce a suitable preparation of active compound, 10 mg of active compound are dissolved in 0.5 mL solvent, and the concentrate is diluted with water to the desired concentration.
This compound solution is pipetted into tubes. 8-10 engorged, adult, female cattle ticks (Rhipicephalus microplus) are placed in perforated tubes. These tubes are immersed in the aqueous compound solution until the ticks are completely moistened. After the liquid has drained off, the ticks are transferred to a filter paper in a plastic tray and stored in a climate chamber.
After 7 days egg deposition of fertile eggs is monitored. Eggs where fertility is not visible are stored in a climate chamber till hatching after about 42 days. An efficacy of 100% means all eggs are infertile; 0% means all eggs are fertile.

Assay [3] relates to adult engorged female ticks (Rhipicephalus microplus). Briefly: Rhipicephalus (Boophilus) microplus injection test. As to conditions: 168 h, 4 μg/animal, egg deposition after 7 days, read-out: efficacy (infertile eggs). In a few lines: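 Five adult engorged female ticks each injected into the abdomen with 1 μL of compound in DMSO, then kept in a climate chamber. Fertile egg deposition assessed after 7 days, with unclear eggs held until hatching around 42 days; efficacy 100% means all eggs infertile, 0% all fertile.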

The subject of assay [4] is adult unfed cat fleas (Ctenocephalides felis). Description: Ctenocephalides felis oral test. As to conditions: 48 h. In a few lines: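 About 20 adult unfed fleas fed through parafilm on cattle blood containing compound (DMSO stock diluted in blood), blood held at 37 °C and fleas at room temperature. Mortality (%) scored after 2 days.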
For assay [5], the system named is adult brown dog ticks (Rhipicephalus sanguineus). Briefly: Rhipicephalus sanguineus in-vitro contact test with adult brown dog ticks. As to conditions: 5 μg/cm^2 (=500 g/ha), after 48 hours, read-out: efficacy (ticks dead or moribund). In outline: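 Read-out: % efficacy as dead or moribund ticks, judged 48 h after exposure by failure to climb away from a 45-50° C heating plate within 5 min. Tubes were coated with acetone solution (900 ppm = 5 μg/cm^2 surface dose) and held 5-10 adults each at room temperature.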

Assay [6] deals with larvae of the banded cucumber beetle (Diabrotica balteata). Briefly: Diabrotica balteata spray test. As to conditions: 168 h, 100 g/ha (=32 μg/well), wheat seeds, after 7 days, read-out: efficacy (seedling growth). In a few lines: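 Efficacy in % was read 7 days after infesting with 10-20 larvae per unit. Before infestation, 1-day-germinated wheat seedlings (5 per well) were sprayed with the active ingredient, formulated in acetone and dimethylformamide plus emulsifier and diluted with water containing emulsifier.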

The subject of assay [7] is green peach aphid (Myzus persicae). Description: Myzus persicae oral test. Conditions: 120 h. In a few lines: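 Compound was dissolved in acetone, diluted with water and mixed into IPL41 insect medium with sugar under a parafilm seal. A mixed aphid population fed through the parafilm, and mortality (%) was scored after 5 days.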
For assay [8], the system named is fall armyworm larvae (Spodoptera frugiperda). Briefly: Spodoptera frugiperda spray test (maize leaf sections). As to conditions: 168 h. In a few lines: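 Percent kill of Spodoptera frugiperda caterpillars read at day 7. Larvae placed on dried Zea mays leaf pieces previously sprayed with test preparation, made from acetone plus DMF and diluted with emulsifier-containing water (1000 ppm).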

The subject of assay [9] is adult mosquitoes Aedes aegypti strain MONHEIM. Briefly: Aedes aegypti test (AEDSAE surface treatment & contact assay). Conditions: surface concentration 20 mg/m^2, 30 min exposure, 24 hours after contact, read-out: efficacy (mortality). In a few lines:
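Test compound in acetone (2 mg/ml) with 2000 ppm rapeseed oil methyl ester was dried onto a glazed tile. Adult Aedes aegypti MONHEIM were exposed to the treated surface for 30 minutes. Percent mortality was scored 24 hours after contact.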

The subject of assay [10] is adult flies Musca domestica strain WHO-N. Briefly: Musca domestica test (MUSCDO surface treatment & contact assay). As to conditions: 24 hours after contact, read-out: efficacy (mortality). In a few lines: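 Percent kill read 24 h post-contact, after adult flies (strain WHO-N) spent 30 min on a glazed tile treated with test solution (acetone, 2 mg/ml, plus 2000 ppm rapeseed oil methyl ester) and dried.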

The test system of assay [11] is larvae of the southern green stink bug (Nezara viridula). Briefly: Nezara viridula spray test. As to conditions: in Hordeum vulgare, 96 h. In outline:
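Mortality (%) of stink bug larvae on treated barley (Hordeum vulgare) was scored 4 days after infestation. Test solutions came from an acetone/DMF concentrate diluted with water containing 1000 ppm emulsifier and were sprayed onto plants before larvae were added.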

The test system is the same in assay [12]. Briefly: Nezara viridula spray test (NEZAVI), comparison. Conditions: 96 h, 500 g ai/ha, 4 dat, read-out: % Efficacy. Here is the method:
Nezara viridula—Spray Test (NEZAVI) • Solvent: 78.0 parts by weight of acetone • 1.5 parts by weight of dimethylformamide • Emulsifier: alkylarylpolyglycol ether
To produce a suitable preparation of active compound, 1 part by weight of active compound is mixed with the stated amount of solvent, and the concentrate is diluted with water, containing an emulsifier concentration of 1000 ppm, to the desired concentration. Further test concentrations are prepared by dilution with emulsifier containing water.
Barley plants (Hordeum vulgare) are sprayed with a test solution containing the desired concentration of the active ingredient and are infested with larvae of the southern green stink bug (Nezara viridula).
After the specified period of time, mortality in % is determined in comparison to the untreated control plant. 100% means all the stink bugs have been killed; 0% means none of the stink bugs have been killed.

Assay [13] relates to fall armyworm larvae (Spodoptera frugiperda). Briefly: Spodoptera frugiperda spray test (SPODFR, maize leaf sections), comparison. Conditions: 168 h, 7 dat, read-out: % Efficacy. Here is the method: Spodoptera fruaiperda—Spray Test (SPODFR) • Solvent: 78.0 parts by weight acetone • 1.5 parts by weight dimethylformamide • Emulsifier: alkylarylpolyglycol ether
To produce a suitable preparation of active compound, 1 part by weight of active compound is mixed with the stated amount of solvents and is diluted with water, containing an emulsifier concentration of 1000 ppm, to the desired concentration. Further test concentrations are prepared by dilution with emulsifier containing water.
Maize (Zea mays) leaf sections are sprayed with a preparation of the active ingredient of the desired concentration. Once dry, the leaf sections are infested with fall armyworm larvae (Spodoptera frugiperda).
After the specified period of time, mortality in % is determined in comparison to the untreated control plant. 100% means all caterpillars have been killed and 0% means none of the caterpillars have been killed.

Assay [14] deals with larvae of the diamondback moth (Plutella xylostella). Briefly: Plutella xylostella spray test (PLUTMA), comparison. As to conditions: 168 h, 7 dat, read-out: % Efficacy. Here is the method:
Plutella xylostella—spray test (PLUTMA) • Solvent: 14 parts by weight of dimethylformamide • Emulsifier: alkylaryl polyglycol ether
(§1) To produce a suitable preparation of active compound, 1 part by weight of active compound is mixed with the stated amount of solvent and is diluted with water, containing an emulsifier concentration of 1000 ppm, to the desired concentration. Further test concentrations are prepared by dilution with emulsifier containing water. Ammonium salt and/or penetration enhancer in a dosage of 1000 ppm are added to the desired concentration if necessary.
Cabbage leaves (Brassica oleracea) are treated by being sprayed with the preparation of the active compound of the desired concentration and are infested with larvae of the diamondback moth (Plutella xylostella).
After the specified period of time, mortality in % is determined. 100% means all the caterpillars have been killed and 0% means none of the caterpillars have been killed.

The test system of assay [15] is caterpillars of the fall army worm (Spodoptera frugiperda). Description: Spodoptera frugiperda spray test (SPODFR, cotton leaves), comparison. Conditions: 168 h, 7 dat, read-out: % Efficacy. Here is the method:
Spodoptera fruaiperda—Spray Test (SPODFR) • Solvent: 14 parts by weight of dimethylformamide • Emulsifier: alkylaryl polyglycol ether
as §1
(§2) Cotton leaves (Gossypium hirsutum) are treated by being sprayed with the preparation of the active compound of the desired concentration and are infested with caterpillars of the fall army worm (Spodoptera frugiperda).
After the specified period of time mortality in % is determined. 100% means all the caterpillars have been killed and 0% means none of the caterpillars have been killed.

For assay [16] the test system is unchanged. Description: Spodoptera frugiperda spray test (cotton leaves). As to conditions: 168 h, after 7 days. Here is the method: Spodoptera frugiperda—spray test • Solvent: 14 parts by weight of dimethylformamide • Emulsifier: alkylaryl polyglycol ether
as §1, §2
After 7 days mortality in % is determined. 100% means all the caterpillars have been killed and 0% means none of the caterpillars have been killed.

Assay [17] concerns adult cat fleas (Ctenocephalides felis). Description: Ctenocephalides felis in-vitro contact test, adult cat flea. Conditions: 5 μg/cm^2 (=500 g/ha), after 48 hours. In a few lines: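 After 48 h of room-temperature exposure in tubes whose walls carried dried compound residue (5 μg/cm^2, from 900 ppm acetone solution), adult cat fleas (5-10 per tube) were heat-challenged at 45-50° C up to 5 min. Fleas unable to climb away were counted dead or moribund, expressed as % efficacy.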

On to `Cc1nc([C@H](C)NC(=O)c2cc(Br)cc(C(F)(F)F)c2)n(-c2ncc(C#N)s2)n1` [I-14], for which the pest or weed control at 5 µg/cm2 in assay [1] was found to be 100%. Besides, in assay [2], the “efficacy (infertile eggs)” value turned out to be 100%. Also, the pest or weed control at 0.004 mg in [3] came to 100%. This compound also came in with a mortality at 100 ppm in assay [4] of 100%. Moreover, the pest or weed control at 5 µg/cm2, 500 g/ha in [5] is 100%. For the same compound, the pest or weed control at 32 µg/disc, 100 g/ha in assay [6] was 100%. This compound registered a mortality at 4 ppm in [7] of 100%. The compound also had a mortality at 100 g/ha in [8] of 100%. In addition, the mortality at 20 mg/m2 is 80 to 100% in assay [9] and 80 to 100% in [10] (surface concentration 20 mg/m^2, 30 min exposure). Moreover, the mortality at 4 mg/m2 in assay [10] (surface concentration 4 mg/m^2, 30 min exposure) lay in the range of 90 to 100%.

For `C[C@H](NC(=O)c1cc(Cl)cc(S(=O)(=O)C(F)(F)F)c1)c1ncnn1-c1ncc(C#N)s1` [I-60], the pest or weed control at 32 µg/disc, 100 g/ha in assay [6] came to 100%. The same compound yielded a mortality at 500 g/ha in assay [11] of 100%. The compound further registered a mortality at 100 g/ha in assay [8] of 100%. In addition, the stink bug mortality at 500 g/ha in [12] turned out to be 100%. Besides, in assay [13] (20 g ai/ha), the larval mortality at 20 g/ha amounted to 100%. Also, the larval mortality at 100 g/ha in [13] (100 g ai/ha) came out at 100%.

`C[C@H](NC(=O)c1cc(Cl)cc(S(=O)(=O)C(F)(F)F)c1)c1ncnn1-c1nccs1` [I-077, reference compound]: in [12], the stink bug mortality at 500 g/ha is 0%. In addition, the Emax at 20 g/ha in [13] (20 g ai/ha) came out at 33%. Besides, the Emax at 100 g/ha in assay [13] (100 g ai/ha) came to 67%.

In the case of `C[C@H](NC(=O)c1cc(Cl)cc(C(F)(F)F)c1)c1ncnn1-c1ncc(C(F)(F)F)s1` [I-085], the mortality at 20 ppm in [14] is 40%. Also, the Emax at 4 ppm in assay [15] stood at 20%.

Take `C[C@H](NC(=O)c1cc(OC(F)(F)F)cc(S(C)(=O)=O)c1)c1ncnn1-c1ncc(C#N)s1` [I-93]: the mortality at 20 ppm in assay [16] worked out at 100%.

Regarding `C[C@H](NC(=O)c1cc(OC(F)F)cc(OC(F)F)c1)c1ncnn1-c1ncc(C#N)s1` [I-94], the pest or weed control at 5 µg/cm2 in assay [1] was determined as 100%. In [17], the “efficacy (fleas dead or moribund)” value was determined as 100%. Besides, the pest or weed control at 5 µg/cm2, 500 g/ha in [5] was 100%. Further, the mortality at 20 ppm in assay [16] was determined as 100%.

`C[C@H](NC(=O)c1cc(Cl)cc(OC(F)(F)F)c1)c1ncnn1-c1ncc(C#N)s1` [I-96] yielded a mortality at 20 ppm in [16] of 100%.

`C[C@H](NC(=O)c1cc(C(F)F)cc(C(F)F)c1)c1ncnn1-c1ncc(C#N)s1` [I-97]: in assay [1], the pest or weed control at 5 µg/cm2 is 100%. For the same compound, the “efficacy (fleas dead or moribund)” value in assay [17] came to 100%. For the same compound, the pest or weed control at 5 µg/cm2, 500 g/ha in assay [5] is 100%. In addition, the mortality at 20 ppm in [16] stood at 100%.

`C[C@H](NC(=O)c1cc(OC(F)(F)F)cc(C(F)F)c1)c1ncnn1-c1ncc(C#N)s1` [I-98]: the pest or weed control at 5 µg/cm2 in [1] came out at 100%. Moreover, the “efficacy (fleas dead or moribund)” value in assay [17] was found to be 100%. The pest or weed control at 5 µg/cm2, 500 g/ha in assay [5] was 100%. The same compound showed a mortality at 20 ppm in [16] of 100%.

`CNC(=O)c1cnc(-n2ncnc2[C@H](C)NC(=O)c2cc(Cl)cc(S(=O)(=O)C(F)(F)F)c2)s1` [I-110]: the pest or weed control at 32 µg/disc, 100 g/ha in [6] came out at 100%. In [11], this compound registered a mortality at 100 g/ha of 90% and a mortality at 500 g/ha of 100%. Besides, in [8], the mortality at 100 g/ha stood at 100%. Moreover, the stink bug mortality at 500 g/ha in [12] is 100%. In addition, in assay [13] (20 g ai/ha), the Emax at 20 g/ha was 67%. In addition, in assay [13] (100 g ai/ha), the larval mortality at 100 g/ha worked out at 100%.
